# Results taken from the supplement of paper PMC10307832.
# What was measured:
# Assay in all cases: relative viability (nuclei count vs DMSO), 5 days (fraction); higher = more cells survive
# Motesanib + Decitabine = compound: CC1(C)CNc2cc(NC(=O)c3cccnc3NCc3ccncc3)ccc21 [Motesanib] + Nc1ncn([C@H]2C[C@H](O)[C@@H](CO)O2)c(=O)n1 [Decitabine] (partner 2 µM)
# Method in brief: (§1)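 Relative viability was taken as the ratio of nuclei in treated wells to nuclei in vehicle wells. Lung cancer cell lines in 1536-well plates received compounds by pin tool one day after seeding, either one drug alone or a fixed anchor-drug dose plus five library-drug doses (not always all listed) in √10 steps. Nuclei were counted on 4× images after 5 days of treatment, and values are medians of duplicate plates.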
# [1] = compound: C[C@@]1(C(=O)Nc2ccc(F)nc2)CCCN1c1nc(Nc2cc(C3CC3)n[nH]2)c2cccn2n1 + C[C@]1(O)C[C@@H](c2nc(-c3ccc4ccc(-c5ccccc5)nc4c3)c3c(N)nccn32)C1 [Linsitinib] (partner 1 µM)
# Method in brief: as §1
# Motesanib + Luminespib = compound: CC1(C)CNc2cc(NC(=O)c3cccnc3NCc3ccncc3)ccc21 [Motesanib] + CCNC(=O)c1noc(-c2cc(C(C)C)c(O)cc2O)c1-c1ccc(CN2CCOCC2)cc1 [Luminespib] (partner 0.01 µM)
# Method in brief: as §1
# Motesanib + Phenformin = compound: CC1(C)CNc2cc(NC(=O)c3cccnc3NCc3ccncc3)ccc21 [Motesanib] + N=C(N)NC(=N)NCCc1ccccc1 [Phenformin] (partner 250 µM)
# Method in brief: as §1
Cell Line,relative viability (Motesanib + Decitabine; first compound 0.01 µM),relative viability (Motesanib + Decitabine; first compound 0.03162 µM),relative viability (Motesanib + Decitabine; first compound 0.1 µM),relative viability (Motesanib + Decitabine; first compound 0.3162 µM),relative viability (Motesanib + Decitabine; first compound 1 µM),relative viability ([1]; first compound 0.04 µM),relative viability ([1]; first compound 0.1265 µM),relative viability ([1]; first compound 0.4 µM),relative viability ([1]; first compound 1.265 µM),relative viability (Motesanib + Luminespib; first compound 0.01 µM),relative viability (Motesanib + Luminespib; first compound 0.03162 µM),relative viability (Motesanib + Luminespib; first compound 0.1 µM),relative viability (Motesanib + Luminespib; first compound 0.3162 µM),relative viability (Motesanib + Luminespib; first compound 1 µM),relative viability (Motesanib + Phenformin; first compound 0.01 µM),relative viability (Motesanib + Phenformin; first compound 0.03162 µM),relative viability (Motesanib + Phenformin; first compound 0.1 µM),relative viability (Motesanib + Phenformin; first compound 0.3162 µM),relative viability (Motesanib + Phenformin; first compound 1 µM)
HCC-44,0.972,0.952,0.932,1.07,0.932,0.777,0.622,0.605,0.945,1.07,0.964,0.884,1.24,1.2,0.129,0.174,0.252,0.309,0.209
COR-L23,0.477,0.456,0.491,0.468,0.519,0.818,0.855,0.768,0.705,0.605,0.694,0.728,0.665,0.738,0.468,0.456,0.494,0.531,0.43
NCI-H727,0.861,0.927,0.929,0.804,0.937,0.349,0.135,0.232,0.283,0.292,0.261,0.729,0.332,0.352,0.408,0.613,0.664,0.587,0.487
NCI-H2087,,,0.343,0.259,0.367,0.933,0.935,0.962,0.932,0.159,0.174,0.149,0.149,0.145,0.475,0.411,0.575,0.489,0.484
BEN,0.599,0.788,0.779,0.693,0.867,0.895,1.24,0.766,1.04,0.331,0.46,0.393,0.498,0.387,0.257,0.259,0.229,0.253,0.272
LCLC-103H,0.774,0.729,0.833,0.815,0.759,1.23,1.01,1.01,1.18,0.92,0.92,0.996,1.04,0.98,0.338,0.298,0.294,0.369,0.37
EKVX,0.385,0.404,0.427,0.401,0.32,0.989,0.742,0.725,0.964,0.847,0.836,0.833,0.877,0.826,0.225,0.231,0.242,0.248,0.24
LXF-289,0.406,0.427,0.617,0.651,0.688,1.02,0.947,0.936,1.02,0.639,0.71,0.655,0.724,0.743,0.526,0.478,0.573,0.529,0.521
ABC-1,0.825,1.03,1.02,0.931,1.26,1.05,0.711,0.619,0.777,0.637,0.867,0.556,0.716,0.866,0.238,0.229,0.223,0.229,0.242
NCI-H650,0.31,0.319,0.312,0.382,0.529,1.19,0.706,0.804,0.721,0.788,,0.81,0.837,0.801,0.457,,0.492,0.544,0.434
NCI-H2085,0.551,0.684,0.702,0.644,0.71,0.877,0.873,0.809,0.822,0.47,0.434,0.428,0.438,0.462,0.745,0.759,0.756,0.781,0.759
NCI-H1793,0.561,0.539,0.663,0.755,0.589,0.863,0.961,0.573,0.992,0.26,0.196,0.199,0.463,0.182,0.295,0.313,0.307,0.39,0.362
LC-2-ad,0.776,0.758,0.776,0.772,0.753,0.897,0.865,0.788,0.576,1.03,1.01,0.959,1.07,1.19,0.531,0.664,0.566,0.566,0.534
COR-L 105,0.643,0.683,0.72,0.739,0.705,0.796,0.808,0.627,0.946,0.737,0.894,0.896,0.73,0.843,0.485,0.499,0.538,0.573,0.463
NCI-H1355,0.4,0.413,0.395,0.415,0.495,0.815,0.882,0.727,0.887,0.719,0.659,0.658,0.77,0.637,0.436,0.416,0.49,0.482,0.475
H3255,0.561,0.651,0.605,0.623,0.678,1.14,1.03,0.833,0.986,0.872,0.954,0.942,1.06,0.902,0.357,0.367,0.364,0.394,0.35
NCI-H1993,0.598,0.568,0.609,0.657,0.659,0.705,,0.723,0.733,0.923,0.734,0.826,0.863,0.932,0.489,0.501,0.516,0.564,0.451
NCI-H1734,0.51,0.675,0.695,0.613,0.869,0.771,0.722,0.794,0.903,0.161,0.188,,0.199,0.201,0.36,0.368,,0.36,0.468

Cell Line,relative viability (Motesanib + Decitabine; first compound 0.01 µM),relative viability (Motesanib + Decitabine; first compound 0.03162 µM),relative viability (Motesanib + Decitabine; first compound 0.1 µM),relative viability (Motesanib + Decitabine; first compound 0.3162 µM),relative viability (Motesanib + Decitabine; first compound 1 µM),relative viability ([1]; first compound 0.04 µM),relative viability ([1]; first compound 0.1265 µM),relative viability ([1]; first compound 0.4 µM),relative viability ([1]; first compound 1.265 µM),relative viability (Motesanib + Luminespib; first compound 0.01 µM),relative viability (Motesanib + Luminespib; first compound 0.03162 µM),relative viability (Motesanib + Luminespib; first compound 0.1 µM),relative viability (Motesanib + Luminespib; first compound 0.3162 µM),relative viability (Motesanib + Luminespib; first compound 1 µM),relative viability (Motesanib + Phenformin; first compound 0.01 µM),relative viability (Motesanib + Phenformin; first compound 0.03162 µM),relative viability (Motesanib + Phenformin; first compound 0.1 µM),relative viability (Motesanib + Phenformin; first compound 0.3162 µM),relative viability (Motesanib + Phenformin; first compound 1 µM)
HOP-62,0.179,0.233,0.573,0.608,0.774,0.927,0.773,1.06,1.06,0.942,0.834,0.954,0.853,0.935,0.641,0.694,0.678,0.74,0.761
LOU-NH91,0.829,0.815,0.848,0.838,0.809,0.937,1.12,0.82,0.977,0.38,0.364,0.332,0.379,0.393,0.672,0.736,0.78,0.75,0.78
PC-14,0.243,0.174,0.275,0.257,0.231,1.09,0.814,0.825,1.01,0.117,0.142,0.126,0.218,0.154,0.471,0.53,0.663,0.604,0.586
NCI-H1437,0.596,0.544,0.58,0.548,0.629,0.935,0.833,0.671,0.843,1.13,1.07,1.08,1.1,1.15,0.287,0.282,0.282,0.316,0.305
NCI-H460,0.531,0.453,0.467,0.568,0.543,0.834,0.667,0.708,0.82,0.0344,0.0382,0.0342,0.0458,0.0311,0.478,0.455,0.54,0.549,0.527
NCI-H1666,0.67,0.748,0.885,0.762,0.813,0.89,0.87,0.753,0.831,1.05,0.978,0.991,0.999,0.977,0.558,0.552,0.591,0.607,0.612
NCI-H1651,0.591,0.751,0.661,0.585,0.731,1.04,0.898,0.984,1.12,0.673,0.89,0.8,0.921,0.892,0.295,0.367,0.342,0.352,0.339
NCI-H1755,0.775,0.838,0.864,0.905,0.913,1.01,0.954,0.895,1.04,0.492,0.505,0.353,0.445,0.315,0.618,0.631,0.665,0.747,0.619
NCI-H661,0.486,0.528,0.556,0.631,0.625,0.63,0.809,0.571,0.545,0.912,0.968,0.948,0.952,0.901,0.292,0.268,0.28,0.292,0.268
HARA,0.492,0.878,0.905,1.06,1.05,0.947,0.939,0.88,1.12,0.894,0.628,0.786,0.871,0.612,0.479,0.433,0.435,0.431,0.359
NCI-H596,1.1,1.08,1.12,1.15,1.16,0.954,1.02,0.939,1.18,1.17,0.917,1.07,0.988,0.871,0.779,0.861,0.67,0.724,0.85
NCI-H23,0.31,0.382,0.436,0.52,0.523,0.612,0.5,0.484,0.613,,0.193,0.209,0.205,0.222,0.799,0.865,0.771,0.795,0.715
LCLC-97TM1,0.251,0.26,0.285,0.261,0.295,0.191,0.173,0.163,0.207,0.635,0.809,0.707,0.813,0.793,0.427,0.424,0.46,0.419,0.418
EPLC-272H,0.37,0.371,0.387,0.335,0.402,1.39,1.07,1.12,1.58,0.302,0.268,,0.233,0.266,0.253,0.333,,0.338,0.247
NCI-H1915,0.272,0.262,0.36,0.306,0.383,1.08,1.08,1.08,1.16,0.765,0.745,0.764,0.826,0.754,0.395,0.362,0.249,0.375,0.357
NCI-H2405,0.77,0.773,0.719,0.833,0.78,1.04,0.91,0.779,0.766,,0.536,0.741,0.689,0.813,,0.265,0.404,0.402,0.422
NCI-H322M,0.688,0.672,0.707,0.685,0.777,0.968,0.83,0.865,0.96,0.913,0.951,0.88,0.842,0.949,0.748,0.823,0.806,0.798,0.791
